Measured values as given in US7977352B2, “Triazolopyridine compounds useful for the treatment of degenerative and inflammatory diseases” (Galapagos NV, priority 2006, dated 2011).

How the values were obtained:
[1] = tested on: MMP1 expression by activated synovial fibroblasts (RASFs); test: MMP assay: MMP1 expression by RASFs triggered with TNF-α (MMP1 ELISA); assay type: cell-based; settings: Fibroblast, 48 h, TNF-α trigger 10 ng/mL, semi-quantitative score, read-out: REDUCTION MMP1/TNFa
Experimental: A 384-well format ELISA for measurement of MMP1 is developed. Various primary antibodies are tested, as well as various ELISA protocols. The following protocol is developed and validated to measure MMP1 levels in SF supernatant in 384 well plates: white Lumitrac 600 384 well plates (Greiner) are coated with 2 μg/mL anti-MMP1 antibody MAB1346 (Chemicon). The antibody is diluted in buffer 40 (1.21 g Tris base (Sigma), 0.58 g NaCl (Calbiochem) and 5 mL 10% NaN3 (Sigma) in 1 L milliQ water and adjusted to pH 8.5). After overnight incubation at 4° C., plates are washed with PBS (80 g NaCl, 2 g KCl (Sigma), 11.5 g Na2HPO4.7H2O and 2 g KH2PO4 in 10 L milliQ; pH 7.4) and blocked with 100 μL/well Casein buffer (2% Casein (VWR International) in PBS). Next day, casein buffer is removed from ELISA plates and replaced by 50 μL/well EC buffer (4 g casein, 2.13 g Na2HPO4 (Sigma), 2 g bovine albumin (Sigma), 0.69 g NaH2PO4.H2O (Sigma), 0.5 g CHAPS (Roche), 23.3 g NaCl, 4 mL 0.5 M EDTA pH 8 (Invitrogen), 5 mL 10% NaN3 in 1 L milliQ and adjusted to pH 7.0). 0.25 mM DTT (Sigma) is added to the thawed sample plates. After removal of the EC buffer, 20 μL of sample is transferred to the ELISA plates. After overnight incubation at 4° C. plates are washed twice with PBS and once with PBST (PBS with 0.05% Tween-20 (Sigma)) and incubated with 35 μL/well biotinylated anti-MMP1 antibody solution (R&D). This secondary antibody is diluted in buffer C (0.82 g NaH2PO4.H2O, 4.82 g Na2HPO4, 46.6 g NaCl, 20 g bovine albumin and 4 mL 0.5M EDTA pH 8 in 2 L milliQ and adjusted to pH 7.0) at a concentration of 5 μg/mL. After 2 h of incubation at RT, plates are washed as described above and incubated with 50 μL/well streptavidin-HRP conjugate (Biosource). Streptavidin-HRP conjugate is diluted in buffer C at a concentration of 0.25 μg/mL. After 45 min, plates are washed as described above and incubated for 5 min with 50 μL/well BM Chem ELISA Substrate (Roche). Readout is performed on the Luminoscan Ascent Luminometer (Labsystems) with an integration time of 200 msec or with an Envision reader (Perkin Elmer).
SFs were acquired at passage 1 from a commercial supplier (Cell applications, Inc.). SFs are cultured in DMEM supplemented with 10% heat-inactivated FBS, 1× penicillin/streptomycin (Invitrogen) at 37° C., 10% CO2 until passage 6. Aliquots of the cells are frozen and cryopreserved in liquid nitrogen. Starting from a cryopreserved aliquot, cells are further expanded by sub-culturing cells at 1/3 ratio every week. Cells between passage 10 and 12 are routinely used in compound testing according to following protocol.
Starting from the compound master stocks (all at 10 mM concentration in 100% DMSO) a 3-fold serial dilution is made in 96-well plates in 100% DMSO. Then, plates are further diluted 45-fold in M199 medium supplemented with 1% heat-inactivated FBS to obtain a intermediate work stock.
At day 1, RASFs are seeded in 96 well plates (flat bottom, tissue culture treated, Greiner) at a density of 3000 cells/well in complete synovial growth medium (Cell Applications). Day 5, the medium is completely removed from the cells, and replaced by 81 μL of M199 medium supplemented with 1% heat-inactivated FBS followed by addition of 10 μL compound out of the intermediate work stock. After an incubation period of 90 minutes, which allows the compounds to equilibrate and enter the cells, cells are stimulated with either TNF-α or ‘complex trigger’. TNF-α trigger is added in a volume of […] to obtain final concentration of 10 ng/mL. For that, TNF-α stock (PeproTech) at 10 μg/mL was diluted to 100 ng/mL TNF-a in M199 medium supplemented with 1% FBS. ‘Complex trigger’ mix is added in a volume of 20 μL to obtain a final concentration of 12.5%. For that, ‘complex trigger’ mix, is diluted to 80% with M199 medium supplemented with 1% FBS. […]

[2] = target: T1, TAK1-TAB1 fusion protein (Homo sapiens, UniProt O43318); test: In vitro TAK1 kinase assay; assay type: biochemical; settings: casein substrate, [33P]-γ-ATP, 90 minutes at 30° C., semi-quantitative score, read-out: POTENCY TAK1 (MAP3K7)
T1 construct: purchased Upstate 14-600
T1 sequence (O43318 with tags, fused parts or gaps limits assumed): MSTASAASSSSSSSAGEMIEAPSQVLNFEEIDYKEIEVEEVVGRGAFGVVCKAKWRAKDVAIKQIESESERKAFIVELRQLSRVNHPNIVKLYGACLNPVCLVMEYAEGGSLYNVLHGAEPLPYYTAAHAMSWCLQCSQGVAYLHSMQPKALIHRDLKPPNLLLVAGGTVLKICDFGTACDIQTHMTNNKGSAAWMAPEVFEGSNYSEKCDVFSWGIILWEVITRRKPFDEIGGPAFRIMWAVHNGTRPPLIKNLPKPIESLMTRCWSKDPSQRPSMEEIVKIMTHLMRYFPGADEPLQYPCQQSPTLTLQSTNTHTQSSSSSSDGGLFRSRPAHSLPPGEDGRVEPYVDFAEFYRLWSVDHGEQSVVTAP
Experimental: For assessing TAK1 inhibition, active TAK1-TAB1 fusion protein was used from Upstate (Cat. No, 14-600). Kinase reactions are set up in 96-well polypropylene plates in 25 μL containing 0.5 mU TAK1-TAB1 fusion protein, 5mM ATP, 0.01 μCi/μL [^33P]-γ-ATP, 0.1 mg/mL casein substrate in 1× reaction buffer containing 10 mM MOPS pH 7.0, 1 mM EDTA.
Starting from the compound master stocks (all at 10 mM concentration in 100% DMSO) a 3-fold serial dilution is made in 96-well plates in 100% DMSO. Plates are further diluted […] in H2O containing 3.5% DMSO, to obtain an intermediate work stock with compounds at 5× the final assay concentration in 5% DMSO.
5 μL of the intermediate stock is transferred into V-bottom 96 well polypropylene plates and 11 μL of Enzyme mix is added. Enzyme mix is made by combining 5 μL 5× reaction buffer ([…] pH 7.0, 1 mM EDTA), 5 μL casein (Sigma) diluted in H20 to 0.5 mg/mL and 1 μL of TAK1-TAB1 fusion protein that was prediluted to 0.5 mU/μL in 1× enzyme dilution buffer (20 mM MOPS pH 7.0, 0.1 mM EDTA, 0.01% Brij-35, 5% glycerol, 1 mM DTT, 1 mg/ml BSA).
The reactions are started by the addition of 9 μL of mixture containing ATP (20.83 uM) and [^33P]-γ-ATP (0.028 μCi/μL).
The assay is stopped 90 minutes after incubation at 30° C. by the addition of 25 μL phosphoric acid (150 mM). The label incorporated into the casein substrate is separated from labeled unincorporated ATP by filtration onto 96-well filter plates using a harvester device. After 6 washes with 75 mM phosphoric acid, the bottom of the filter plates are sealed, and incorporated label is quantified after addition of 40 μL scintillation fluid using TopCount.

IC50 [2]	Structure (SMILES)	IC50 [1]
< 0.5 µM	CCC(CC)N1CCN(c2ccc(Nc3ccc(-c4cn[nH]c4)n4ncnc34)cc2)CC1 [Example 34, N-{4-[4-(1-ethylpropyl)piperazin-1-yl]phenyl}-5-(1H-pyrazol-4-yl)[1,2,4]triazolo[1,5-a]pyridin-8-amine]	1 to 5 µM
< 0.5 µM	CCC(CC)N1CCN(c2ccc(Nc3ccc(-c4ccc(C(N)=O)cc4)n4ncnc34)cc2)CC1 [Example 14, 4-[8-({4-[4-(1-ethylpropyl)piperazin-1-yl]phenyl}amino)[1,2,4]triazolo[1,5-a]pyridin-5-yl]benzamide]	> 10 µM
> 10 µM	CC(C)N1CCN(c2ccc(Nc3ccc(-c4ccc5[nH]ccc5c4)n4ncnc34)cc2)CC1 [Example 51, 5-(1H-indol-5-yl)-N-[4-(4-isopropylpiperazin-1-yl)phenyl][1,2,4]triazolo[1,5-a]pyridin-8-amine]	> 10 µM
< 0.5 µM	CCCN1CCN(c2ccc(Nc3ccc(-c4cc[nH]c(=O)c4)n4ncnc34)cc2)CC1 [Example 20, 4-(8-{[4-(4-propylpiperazin-1-yl)phenyl]amino}[1,2,4]triazolo[1,5-a]pyridin-5-yl)pyridin-2(1H)-one]	1 to 5 µM
> 10 µM	COc1cc(-c2ccc(Nc3ccc(N4CCN(C5CC5)CC4)cc3)c3ncnn23)ccn1 [Example 30, N-[4-(4-cyclopropylpiperazin-1-yl)phenyl]-5-(2-methoxypyridin-4-yl)[1,2,4]triazolo[1,5-a]pyridin-8-amine]	1 to 5 µM
< 0.5 µM	CCCN1CCN(c2ccc(Nc3ccc(-c4ccc(C(N)=O)cc4)n4ncnc34)cc2)CC1 [Example 13, 4-(8-{[4-(4-propylpiperazin-1-yl)phenyl]amino}[1,2,4]triazolo[1,5-a]pyridin-5-yl)benzamide]	> 10 µM
> 10 µM	CCC(CC)N1CCN(c2ccc(Nc3ccc(-c4ccnc(OC)c4)n4ncnc34)cc2)CC1 [Example 28, N-{4-[4-(1-ethylpropyl)piperazin-1-yl]phenyl}-5-(2-methoxypyridin-4-yl)[1,2,4]triazolo[1,5-a]pyridin-8-amine]	1 to 5 µM
> 10 µM	CC(C)N1CCN(c2ccc(Nc3ccc(-c4ccc(F)c(C(N)=O)c4)n4ncnc34)cc2)CC1 [Example 46, 2-fluoro-5-(8-{[4-(4-isopropylpiperazin-1-yl)phenyl]amino}[1,2,4]triazolo[1,5-a]pyridin-5-yl)benzamide]	> 10 µM
< 0.5 µM	CCN1CCN(c2ccc(Nc3ccc(-c4cc[nH]c(=O)c4)n4ncnc34)cc2)CC1 [Example 19, 4-(8-{[4-(4-ethylpiperazin-1-yl)phenyl]amino}[1,2,4]triazolo[1,5-a]pyridin-5-yl)pyridin-2(1H)-one]	1 to 5 µM

Continued, compound first:

Structure (SMILES)	IC50 [2]	IC50 [1]
C[C@@H]1CN(c2ccc(Nc3ccc(-c4cc[nH]c(=O)c4)n4ncnc34)cc2F)C[C@H](C)N1C [Example 9, 4-[8-({3-fluoro-4-[(3R,5S)-3,4,5-trimethylpiperazin-1-yl]phenyl}amino)[1,2,4]triazolo[1,5-a]pyridin-5-yl]pyridin-2(1H)-one]	0.501 to 1 µM	1 to 5 µM
c1cc(-c2ccc(Nc3ccc(N4CCOCC4)cc3)c3ncnn23)c2cc[nH]c2c1 [Example 48, 5-(1H-indol-4-yl)-N-(4-morpholin-4-ylphenyl)[1,2,4]triazolo[1,5-a]pyridin-8-amine]	> 10 µM	1 to 5 µM
O=c1cc(-c2ccc(Nc3ccc(N4CCNCC4)cc3)c3ncnn23)cc[nH]1 [Example 33, 4-{8-[(4-piperazin-1-ylphenyl)amino][1,2,4]triazolo[1,5-a]pyridin-5-yl}pyridin-2(1H)-one]	< 0.5 µM	1 to 5 µM
c1nc2c(Nc3ccc(N4CCOCC4)cc3)ccc(-c3ccc4cc[nH]c4c3)n2n1 [Example 52, 5-(1H-indol-6-yl)-N-(4-morpholin-4-ylphenyl)[1,2,4]triazolo[1,5-a]pyridin-8-amine]	> 10 µM	> 10 µM
C[C@@H]1CN(c2ccc(Nc3ccc(-c4cc[nH]c(=O)c4)n4ncnc34)cc2)C[C@H](C)N1C [Example 57, 4-[8-({4-[(3R,5S)-3,4,5-trimethylpiperazin-1-yl]phenyl}amino)[1,2,4]triazolo[1,5-a]pyridin-5-yl]pyridin-2(1H)-one]	< 0.5 µM	1 to 5 µM
COc1ncc(-c2ccc(Nc3ccc(N4CCOCC4)cc3)c3ncnn23)c(OC)n1 [Example 54, 5-(2,4-dimethoxypyrimidin-5-yl)-N-(4-morpholin-4-ylphenyl)[1,2,4]triazolo[1,5-a]pyridin-8-amine]	> 10 µM	> 10 µM
c1nc2c(Nc3ccc(N4CCN(C5CCC5)CC4)cc3)ccc(-c3cn[nH]c3)n2n1 [Example 35, N-[4-(4-cyclobutylpiperazin-1-yl)phenyl]-5-(1H-pyrazol-4-yl)[1,2,4]triazolo[1,5-a]pyridin-8-amine]	< 0.5 µM	> 10 µM
O=c1cc(-c2ccc(Nc3ccc(N4CCN(C5CCCCC5)CC4)cc3)c3ncnn23)cc[nH]1 [Example 25, 4-(8-{[4-(4-cyclohexylpiperazin-1-yl)phenyl]amino}[1,2,4]triazolo[1,5-a]pyridin-5-yl)pyridin-2(1H)-one]	< 0.5 µM	1 to 5 µM
